These are literature values, as cited in patent publication US20060264455A1 (priority 2005, published 2006).

Structures are written as SMILES.

The data set deals with 6 Hz limbic seizures (corneal stimulation). The following applies: established antiepileptic drugs; cited from earlier work.
Take `NC(=O)N1c2ccccc2C=Cc2ccccc21` [carbamazepine]: the “Efficacy in the 6 Hz psychomotor seizure model” value (shortened to “Efficacy”) is given as “limited efficacy”.

On to `Nc1nnc(-c2cccc(Cl)c2Cl)c(N)n1` [lamotrigine], for which the “Efficacy” value is listed as “limited efficacy”.

Regarding `O=C1NC(=O)C(c2ccccc2)(c2ccccc2)N1` [phenytoin], the “Efficacy” value was “limited efficacy”.

Turning to `CC1(C)O[C@@H]2[C@@H](CO[C@@]3(COS(N)(=O)=O)OC(C)(C)O[C@@H]23)O1` [topiramate], the “Efficacy” value is “limited efficacy”.
